Measurements published in patent US6410054B1, “Immediate release eplerenone compositions” (G. D. Searle & Co., priority 1998, dated 2002).

Assay: Single dose study: plasma pharmacokinetics of eplerenone, open lactone ring form, spironolactone
Details: for Plasma Concentration Of Eplerenone: -0.25 h (predose); for Oral Clearance: eplerenone in plasma; for concentration at 12 h / AUC(0-t) / Cmax / MRT / Tmax / concentration at 0.5 h / concentration at 1 h / concentration at 2 h / concentration at 3 h / concentration at 4 h / concentration at 6 h / concentration at 8 h / concentration at 16 h / concentration at 24 h / concentration at 28 h / concentration at 32 h / concentration at 48 h / concentration at 72 h / concentration at 96 h / half-life: male, human, po
Method: The pharmacokinetics, safety and antialdosterone activity of single 10, 50, 100, 300 and 1000 mg oral doses of eplerenone were evaluated in a single-center, randomized, double-blind, placebo-controlled study.
The study employed seven parallel dose groups of eight healthy male humans.
The eplerenone capsules administered corresponded to the capsules (or combinations of the capsules) disclosed in Examples 4, 5, 7 and 8 above. The placebo was a conventional capsule containing lactose. […] The fludrocortisone used in the study consisted of commercially available fludrocortisone tablets (Florinef®, Squibb BV).
The subjects, who underwent a ten hour food fast prior to administration of the dose, received a single oral dose of one of the study medications together with about 180 mL of water at 0800 hours. […] Each dose of fludrocortisone was administered with 150 mL of water except for the 1.0 mg dose which was administered with 200 mL of water.
The plasma samples collected from subjects dosed with eplerenone were assayed for concentrations of eplerenone and the open lactone ring form of eplerenone. […] A subset of plasma samples was also assayed for testosterone levels. The urine collected was analyzed to determine concentrations and amounts of eplerenone and the open lactone ring form of eplerenone, the amount of sodium and potassium excreted, and the urinary log10 (sodium/potassium) ratio.

SMILES: COC(=O)C1CC2=CC(=O)CCC2(C)C23OC2CC2(C)C(CC[C@@]24CCC(=O)O4)C13 (stereo partly drawn) [eplerenone, methyl hydrogen 9,11α-epoxy-17α-hydroxy-3-oxopregn-4-ene-7α,21-dicarboxylate, γ-lactone]
- Plasma Concentration Of Eplerenone (10 mg single oral dose): 0 ng/mL
- Plasma Concentration Of Eplerenone (50 mg single oral dose): 0 ng/mL
- Plasma Concentration Of Eplerenone (100 mg single oral dose): 0 ng/mL
- Plasma Concentration Of Eplerenone (300 mg single oral dose): 0 ng/mL
- Plasma Concentration Of Eplerenone (1000 mg single oral dose): 0 ng/mL
- Oral Clearance (10 mg single oral dose): 13.3 L/h
- Oral Clearance (50 mg single oral dose): 13.7 L/h
- Oral Clearance (100 mg single oral dose): 13.1 L/h
- Oral Clearance (300 mg single oral dose): 17.6 L/h
- Oral Clearance (1000 mg single oral dose): 18.4 L/h
- concentration at 12 h (in vivo, 50 mg): 49.4 ng/mL
- AUC(0-t) (plasma, 10 mg): 942 ng·h/mL
- Cmax (plasma, 10 mg): 191 ng/mL
- MRT (plasma, 10 mg): 3.9 h
- Tmax (plasma, 10 mg): 1.3 h
- concentration at 0.5 h (plasma, 10 mg): 130 ng/mL
- concentration at 1 h (plasma, 10 mg): 177 ng/mL
- concentration at 2 h (plasma, 10 mg): 159 ng/mL
- concentration at 3 h (plasma, 10 mg): 125 ng/mL
- concentration at 4 h (plasma, 10 mg): 106 ng/mL
- concentration at 6 h (plasma, 10 mg): 65.3 ng/mL
- concentration at 8 h (plasma, 10 mg): 34.4 ng/mL
- concentration at 12 h (plasma, 10 mg): 6 ng/mL
- concentration at 16 h (plasma, 10 mg): 6 ng/mL
- concentration at 24 h (plasma, 10 mg): 1.7 ng/mL
- concentration at 28 h (plasma, 10 mg): 0 ng/mL
- concentration at 32 h (plasma, 10 mg): 0 ng/mL
- concentration at 48 h (plasma, 10 mg): 0 ng/mL
- concentration at 72 h (plasma, 10 mg): 0 ng/mL
- concentration at 96 h (plasma, 10 mg): 0 ng/mL
- half-life (plasma, 10 mg): 2.1 h
- AUC(0-t) (plasma, 50 mg): 4020 ng·h/mL
- Cmax (plasma, 50 mg): 797 ng/mL
- MRT (plasma, 50 mg): 4.2 h
- Tmax (plasma, 50 mg): 1.4 h
- concentration at 0.5 h (plasma, 50 mg): 552 ng/mL
- concentration at 1 h (plasma, 50 mg): 721 ng/mL
- concentration at 2 h (plasma, 50 mg): 693 ng/mL
- concentration at 3 h (plasma, 50 mg): 592 ng/mL
- concentration at 4 h (plasma, 50 mg): 457 ng/mL
- concentration at 6 h (plasma, 50 mg): 270 ng/mL
- concentration at 8 h (plasma, 50 mg): 146 ng/mL
- concentration at 16 h (plasma, 50 mg): 18.3 ng/mL
- concentration at 24 h (plasma, 50 mg): 3 ng/mL
- concentration at 28 h (plasma, 50 mg): 1.8 ng/mL
- concentration at 32 h (plasma, 50 mg): 0 ng/mL
- concentration at 48 h (plasma, 50 mg): 0 ng/mL
- concentration at 72 h (plasma, 50 mg): 0 ng/mL
- concentration at 96 h (plasma, 50 mg): 0 ng/mL
- half-life (plasma, 50 mg): 2.9 h
- AUC(0-t) (plasma, 100 mg): 7940 ng·h/mL
- Cmax (plasma, 100 mg): 1500 ng/mL
- MRT (plasma, 100 mg): 4.9 h
- Tmax (plasma, 100 mg): 1.5 h
- concentration at 0.5 h (plasma, 100 mg): 758 ng/mL
- concentration at 1 h (plasma, 100 mg): 1220 ng/mL
- concentration at 2 h (plasma, 100 mg): 1360 ng/mL
- concentration at 3 h (plasma, 100 mg): 1110 ng/mL
- concentration at 4 h (plasma, 100 mg): 900 ng/mL
- concentration at 6 h (plasma, 100 mg): 558 ng/mL
- concentration at 8 h (plasma, 100 mg): 275 ng/mL
- concentration at 12 h (plasma, 100 mg): 124 ng/mL
- concentration at 16 h (plasma, 100 mg): 41.9 ng/mL
- concentration at 24 h (plasma, 100 mg): 13.1 ng/mL
- concentration at 28 h (plasma, 100 mg): 6.1 ng/mL
- concentration at 32 h (plasma, 100 mg): 3 ng/mL
- concentration at 48 h (plasma, 100 mg): 0 ng/mL
- concentration at 72 h (plasma, 100 mg): 0 ng/mL
- concentration at 96 h (plasma, 100 mg): 0 ng/mL
- half-life (plasma, 100 mg): 4.9 h
- AUC(0-t) (plasma, 300 mg): 18500 ng·h/mL
- Cmax (plasma, 300 mg): 2970 ng/mL
- MRT (plasma, 300 mg): 5.5 h
- Tmax (plasma, 300 mg): 1.5 h
